Literature values, collected in patent publication US20020179884A1, “Disinfecting and deodorizing agent” (priority 2000, published 2002).

Conditions: 25° C.

Row | SMILES | pKa25
1 | O=P(O)(O)OP(=O)(O)OP(=O)(O)O [sodium tripolyphosphate] | 9.70
2 | O=P([O-])([O-])OP(=O)([O-])O.[Na+].[Na+].[Na+] [trisodium pyrophosphate] | 8.95
3 | O=C([O-])O.[Na+] [sodium hydrogencarbonate] | 10.33
4 | O=BOB(O)OB(O)OB=O [sodium tetraborate] | 9.24
